Reference: PMC10178127, “Immunomodulatory Effects of the Pea Defensin Psd1 in the Caco-2/Immune Cells Co-Culture upon Candida albicans Infection” (International Journal of Molecular Sciences, 2023)

System: Caco-2/moDCs co-culture
Assay: Multiplex xMAP cytokine production, Caco-2/dendritic cells co-culture
Format: cell-based, human
Details: 24 h; for EGF level / Eotaxin level / FGF-2 level / FLT-3L level / Fractalkine level / G-CSF level / GM-CSF level / GROa level / IFNa2 level / IFNg level / IL-1RA level / IL-1a level / IL-1b level / IL-2 level / IL-3 level / IL-4 level / IL-5 level / IL-6 level / IL-7 level / IL-8 level / IL-9 level / IL-10 level / IL-12 (p40) level / IL-12 (p70) level / IL-13 level / IL-15 level / IL-17A level / IL-17E/IL-25 level / IL-17F level / IL-18 level / IL-22 level / IL-27 level / IP-10 level / M-GSF level / MCP-1 level / MCP-3 level / MDC level / MIG level / MIP-1a level / MIP-1b level / PDGF-AA level / PDGF-AB/BB level / RANTES level / TGF-a level / TNFa level / TNFb level / VEGFa level / sCD40L level: 2 µM apical, basolateral medium
From the text: The co-culture model consisted of immune cells (moDCs or monocytes) lying on the bottom of the culture well, and a Caco-2 polarized monolayer, mimicking intestinal epithelium, on a permeable insert. Immune cells were located on the serosal side of the epithelial barrier. In some inserts Candida albicans was loaded to the apical side of the epithelium, mimicking intestinal lumen colonization with this pathogenic fungus. This co-culture model allows yeast cells to contact only with the apical side of epithelial cells, but not with immune cells. Culture medium, containing cytokines, chemokines, and growth factors, produced by both epithelial and immune cells, was taken from basolateral chambers and analyzed by multiplex xMAP technology after incubation during 24 h when C. albicans cells switched to hyphal form.
For growing cells, mimicking epithelial barriers in vitro, Caco-2 cells were seeded onto 24-well polycarbonate Millicell cell culture inserts (0.4 μm, 0.6 cm^2 surface area) (Millipore, Burlington, MA, USA), precoated with 0.2% bovine gelatin (Sigma-Aldrich), at a density of 2.5 × 10^5 cells/cm^2. The cells were grown for 21 days in a complete DMEM/F12 (1:1) medium with re-feeding every 2–3 days with a fresh complete medium. The integrity of the Caco-2 cell monolayer was checked by measuring the transepithelial electrical resistance (TEER) using a Millicell-ERS Voltohmmeter (Millipore). Only cell monolayers with TEER > 400 Ωcm^2 (after subtracting TEER in blank inserts without Caco-2 cells) were used in transport across epithelial monolayer and cytokine production experiments.
Monocytes and moDCs were seeded into the wells of 48- and 24-well plates in the complete RPMI-1640 medium supplemented with 10% human AB serum (HABS, Capricorn Scientific) without antibiotics 24 h prior to the experiment, and kept in a humidified CO2-incubator (5% CO2, 37 °C). After 24 h, the medium in the wells of the 48-well plate was replaced by fresh complete RPMI-1640 medium with 10% HABS, supplemented with 2 µM of Psd1 for the sample wells or fresh medium alone for the control wells. Medium in the wells of the 24-well plate was replaced by fresh complete RPMI-1640 medium with 10% human serum without antibiotics. Then, Millicell inserts with Caco-2 monolayers with TEER > 400 Ωcm^2 were placed into the wells of the 24-well plate, containing monocytes or moDCs. Wells with Millicell inserts with Caco-2 monolayers without immune cells were used as control wells. Medium in apical chambers of Millicell inserts was replaced by fresh complete RPMI-1640 with 10% human serum medium containing Psd1 at the final concentration of 2 µM or Candida albicans at the concentration of 5 × 10^4 cells/mL or yeast cells together with the pea defensin at the same concentration. Fresh complete RPMI-1640 medium only with 10% human serum and without antibiotics was used in control wells. Plates were kept in CO2-incubator (5% CO2, 37 °C) for another 24 h. Culture supernatants from the wells of the 48-well plate and basolateral chambers of the 24-well plate were collected and stored at −70 °C degrees less than one month prior to the analytes assessment. […]

## Psd1: pea defensin from Pisum sativum (UNIPROT P81929), recombinant peptide overexpressed in Escherichia coli (KTCEHLADTYRGVCFTNASCDDHCKNKAHLISGTCHNWKCFCTQNC; UniProt P81929 1-46, looked up)
Caco-2/dendritic cells co-culture with C. albicans, 2 μM
  production of TNFα, IL-6, IL-8/CXCL8, IL-12, IL-27, G-CSF, GM-CSF, and MIPs induced by C. albicans: inhibited the production
Caco-2/moDCs+Candida+Psd1
  EGF level: 4.72 pg/mL
  Eotaxin level: <3.52↓ pg/ml
  FGF-2 level: 37.17 pg/mL
  FLT-3L level: 0.57 pg/mL
  Fractalkine level: <17.82↓ pg/ml
  G-CSF level: 3.15 pg/mL
  GM-CSF level: 1.96 pg/mL
  GROa level: 23.25 pg/mL
  IFNa2 level: 7.95 pg/mL
  IFNg level: <2.23↓ pg/ml
  IL-1RA level: 160.3 pg/mL
  IL-1a level: 3.72 pg/mL
  IL-1b level: <2.26↓ pg/ml
  IL-2 level: 1.49 pg/mL
  IL-3 level: <0.60↓ pg/ml
  IL-4 level: <1.14↓ pg/ml
  IL-5 level: 2.95 pg/mL
  IL-6 level: 1.46 pg/mL
  IL-7 level: <0.38↓ pg/ml
  IL-8 level: 107.27 pg/mL
  IL-9 level: 4.69 pg/mL
  IL-10 level: 17.03 pg/mL
  IL-12 (p40) level: 52.85 pg/mL
  IL-12 (p70) level: <1.68↓ pg/ml
  IL-13 level: 11.06 pg/mL
  IL-15 level: 8.46 pg/mL
  IL-17A level: <2.09↓ pg/ml
  IL-17E/IL-25 level: <18.85↓ pg/ml
  IL-17F level: <19.03↓ pg/ml
  IL-18 level: 4.94 pg/mL
  IL-22 level: <5.23↓ pg/ml
  IL-27 level: 49.72 pg/mL
  IP-10 level: 334.16 pg/mL
  M-GSF level: 123.66 pg/mL
  MCP-1 level: 307.65 pg/mL
  MCP-3 level: 19.67 pg/mL
  MDC level: 2630 pg/mL
  MIG level: 38259 pg/mL
  MIP-1a level: 16.22 pg/mL
  MIP-1b level: 78.16 pg/mL
  PDGF-AA level: 256.1 pg/mL
  PDGF-AB/BB level: 97.16 pg/mL
  RANTES level: <0.62↓ pg/ml
  TGF-a level: 35.55 pg/mL
  TNFa level: 18.93 pg/mL
  TNFb level: 0.97 pg/mL
  VEGFa level: 75.3 pg/mL
  sCD40L level: 84.71 pg/mL
Caco-2/moDCs+Psd1
  EGF level: 4.72 pg/mL
  Eotaxin level: <3.52↓ pg/ml
  FGF-2 level: 45.43 pg/mL
  FLT-3L level: 0.57 pg/mL
  Fractalkine level: <17.82↓ pg/ml
  G-CSF level: 9.1 pg/mL
  GM-CSF level: 3.93 pg/mL
  GROa level: 21.95 pg/mL
  IFNa2 level: 5.69 pg/mL
  IFNg level: <2.23↓ pg/ml
  IL-1RA level: 141.59 pg/mL
  IL-1a level: 4.37 pg/mL
  IL-1b level: 9.3 pg/mL
  IL-2 level: 1.57 pg/mL
  IL-3 level: <0.60↓ pg/ml
  IL-4 level: <1.14↓ pg/ml
  IL-5 level: 3.35 pg/mL
  IL-6 level: 2.41 pg/mL
  IL-7 level: <0.38↓ pg/ml
  IL-8 level: 134.16 pg/mL
  IL-9 level: 3.44 pg/mL
  IL-10 level: 10.61 pg/mL
  IL-12 (p40) level: 52.85 pg/mL
  IL-12 (p70) level: <1.68↓ pg/ml
  IL-13 level: 16.44 pg/mL
  IL-15 level: 10.29 pg/mL
  IL-17A level: <2.09↓ pg/ml
  IL-17E/IL-25 level: <18.85↓ pg/ml
  IL-17F level: <19.03↓ pg/ml
  IL-18 level: 4.84 pg/mL
  IL-22 level: <5.23↓ pg/ml
  IL-27 level: 53.57 pg/mL
  IP-10 level: 330.74 pg/mL
  M-GSF level: 144.24 pg/mL
  MCP-1 level: 362.92 pg/mL
  MCP-3 level: 20.63 pg/mL
  MDC level: 2562 pg/mL
  MIG level: 32839 pg/mL
  MIP-1a level: 20.66 pg/mL
  MIP-1b level: 85.91 pg/mL
  PDGF-AA level: 233.14 pg/mL
  PDGF-AB/BB level: 92.84 pg/mL
  RANTES level: <0.62↓ pg/ml
  TGF-a level: 40.15 pg/mL
  TNFa level: 20.96 pg/mL
  TNFb level: 1.55 pg/mL
  VEGFa level: 82.2 pg/mL
  sCD40L level: 98.67 pg/mL
